In paper PMC4465272 (eNeuro, 2015):
Entries after “also recorded” stand apart in the source; their conditions may differ.

How the values were obtained:
[1] = tested on: eEPSCs in the dorsal horn of rat spinal cord; conditions: cited from earlier work
human GABAB receptor = conditions: cited from earlier work
[2] = tested on: nAChRs subtypes containing the α3 subunit; conditions: cited from earlier work
[3] = tested on: GABAB receptors expressed in Xenopus laevis oocytes; conditions: cited from earlier work
rat α9α10 nAChRs = format: cell-based
α9α10 nAChRs = conditions: cited from earlier work
[4] = tested on: N-type CaV (CaV2.2) current in sensory neurons; conditions: cited from earlier work
animal pain models = conditions: in vivo; cited from earlier work
[5] = tested on: CaV current in rat sensory neurons (DRG); assay: cells; format: cell-based, rat (adult male Sprague Dawley)

Vc1.1
effect on eEPSCs / EPSPs in dorsal horn [1]: does not affect excitatory neurotransmitter release; also recorded: no inhibition of EPSPs; also recorded: failed to affect
effect on binding of [^3H]CGP-54626, a specific competitive antagonist (human GABAB receptor): failed to block binding; also recorded: Neither Vc1.1 or RgIA were able to prevent the binding
antagonism of nAChRs containing the α3 subunit [2]: weakly antagonizes
activation of GABAB receptors [3]: do not activate GABAB receptors; also recorded: failed to activate GABAB receptors
block of ACh-induced current (rat α9α10 nAChRs): 85 ± 13%
antagonism of α9α10 nAChRs (α9α10 nAChRs): potent antagonists
GABAB dependence of N-type CaV current inhibition [4]: requires functional GABAB receptors
reversibility of CaV current block [4]: irreversible
sensory neurons with CaV current inhibited [4]: ~75%
antinociceptive / analgesic effect (animal pain models): antinociceptive effects
CaV current inhibition in the neuron with the largest Vc1.1 and RgIA response [5]: 41%
CaV current inhibition in the neuron with the largest baclofen response [5]: 3.5%
average CaV current inhibition in neurons with baclofen responses of 20 − 24% [5]: 4.3 ± 6.6%
enhancement of CaV current inhibition by BSA [5]: no enhancement of the CaV current inhibition was observed
inhibition of CaV current in example neuron [5]: 40%
postpulse CaV current inhibition [5]: 6.2 ± 12.5%
prepulse CaV current inhibition [5]: 6.5 ± 12.7%
recovery τ from CaV current block [5]: 0.5 ± 0.2 min
reversibility of CaV current block [5]: readily reversible; also recorded: almost full recovery from inhibition
voltage dependence of CaV current inhibition [5]: not voltage-dependent
average CaV current inhibition (as summarised in discussion) ([5]; 1 µM): 7%
average effect on CaV current (in words) ([5]; 1 µM): only minimal inhibition
neurons responding with CaV current inhibition >10% ([5]; 1 µM): 19%
